# Earlier results, collected in patent US12246026B2, “Ganaxolone for use in treatment of status epilepticus” (Marinus Pharmaceuticals, Inc., priority 2019, dated 2025).
# System: patients with super refractory SE
# Conditions: randomized, double-blind, placebo-controlled Phase 3 trial; cited from earlier work
structure (smiles),measurement,value
CC(=O)[C@H]1CC[C@H]2[C@@H]3CC[C@H]4C[C@H](O)CC[C@]4(C)[C@H]3CC[C@]12C [brexanolone],efficacy over placebo,failed to show efficacy over placebo
